Test results published in patent US20240035973A1, “METHODS AND COMPOSITIONS OF STABLE THALLIUM FLUX ASSAYS FOR DETECTING MODULATORS OF ION CHANNELS” (ION Biosciences, priority 2022, published 2024).
Like-named read-outs stand apart in the source and are kept apart here.

How the values were obtained:
[1] = target: T1, GIRK (Homo sapiens, UniProt P48051+P48549); test: traditional thallium flux assay (influx), dose response; format: cell-based; details: traditional thallium flux method, CHO GIRK cells
T1 sequence (P48549 1-501): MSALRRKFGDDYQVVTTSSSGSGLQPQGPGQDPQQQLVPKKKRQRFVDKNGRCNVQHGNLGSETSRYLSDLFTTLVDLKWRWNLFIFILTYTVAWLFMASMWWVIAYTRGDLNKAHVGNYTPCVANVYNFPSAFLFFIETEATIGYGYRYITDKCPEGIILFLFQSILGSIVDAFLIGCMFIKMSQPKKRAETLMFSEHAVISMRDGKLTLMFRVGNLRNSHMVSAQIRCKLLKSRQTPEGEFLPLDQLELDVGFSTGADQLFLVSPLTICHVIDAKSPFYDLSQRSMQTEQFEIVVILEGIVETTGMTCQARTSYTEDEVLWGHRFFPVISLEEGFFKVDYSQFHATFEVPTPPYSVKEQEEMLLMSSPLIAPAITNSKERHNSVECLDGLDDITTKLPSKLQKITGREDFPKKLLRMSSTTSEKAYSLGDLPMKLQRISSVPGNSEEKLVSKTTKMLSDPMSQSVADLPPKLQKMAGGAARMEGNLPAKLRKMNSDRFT
T1 sequence (P48051 1-423): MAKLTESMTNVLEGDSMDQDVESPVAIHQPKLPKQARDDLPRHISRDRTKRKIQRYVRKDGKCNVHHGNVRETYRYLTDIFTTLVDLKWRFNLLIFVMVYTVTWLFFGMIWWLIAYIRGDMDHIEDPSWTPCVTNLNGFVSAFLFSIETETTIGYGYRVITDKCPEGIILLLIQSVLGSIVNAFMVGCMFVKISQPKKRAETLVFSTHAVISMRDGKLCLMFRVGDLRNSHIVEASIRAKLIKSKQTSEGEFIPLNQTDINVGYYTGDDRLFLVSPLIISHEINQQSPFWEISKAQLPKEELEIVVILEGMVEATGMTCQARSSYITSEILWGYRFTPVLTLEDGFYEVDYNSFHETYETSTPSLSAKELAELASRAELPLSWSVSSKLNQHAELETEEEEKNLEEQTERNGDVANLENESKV
Protocol: FIG. 5: (Left) Overlay of normalized dose response curves acquired using new method. Data was acquired using different analytical methods or instruments, and all three result in similar profiles and reported EC50 values.
In a comparative test of the efflux method disclosed herein, EC50 values were determined using VU551 as the effector. Three different instruments were used to monitor the change in fluorescence: 1- kinetic imaging plate reader (Hamamatsu FDSS), 2 - fluorescent microscope; 3- fluorescent plate reader. FIG. 5 depicts an overlay of normalized dose response curves acquired using the efflux method described herein. Regardless of the method of data collection, all three instruments provided similar profiles and reported similar EC50 values. In the right graph of FIG. 5, a dose response curve acquired using traditional thallium flux assay methods is shown. […] The use of a plate reader to determine the EC50 in the efflux method produced the closest result to the traditional method.

[2] = target: T2, GIRK1/2 (Homo sapiens, UniProt P48051+P48549); test: thallium efflux assay by flow cytometry in CHO GIRK1/2 cells; format: cell-based
T2 construct: expressed in transfected cells; host or cells: CHO (Chinese hamster ovary) cells overexpressing GIRK1 and GIRK2
T2 sequence (P48549 1-501): T1 sequence (P48549 1-501)
T2 sequence (P48051 1-423): T1 sequence (P48051 1-423)
Protocol: CHO GIRK cells were treated with HEPES-Buffered Hanks Balanced Salt Solution (HHBSS, Control) or GIRK activator, VU0466551 (VU551). Data was acquired 50 minutes after addition of 1 μM VU551 using a BD Accuri C6 Flow Cytometer. […] FIG. 18 depicts an overlay of histograms of CHO GIRK1/2 cell fluorescence in treated and control cells.
FIG. 19 depicts the kinetic profile of CHO GIRK1/2 median cell fluorescence. Sample data was acquired before and at different time points after the addition of 3 μM GIRK activator, VU0466551 (VU551) or HHBSS (control). A slow increase in fluorescence is observed in the untreated group.

[3] = target: T1, GIRK; set-up: expressed in transfected cells; host or cells: CHO-K1 cells overexpressing GIRK channels; details: potassium indicator; plate reader or microscopy; read-out: EC50, literature reported value (calculated EC50s in line with it); cited from earlier work

For `Cc1cc(NC(=O)Nc2ccc(F)c(F)c2)n(Cc2ccccc2)n1` [VU551], the EC50 [1] was 77 nM, the “Mean cell fluorescence of the treated group” value ([2]; 1 μM, 50 minutes after addition, BD Accuri C6 Flow Cytometer, control 4.5M RFUs) was 2.5 M and the “change in median cell fluorescence (kinetic profile)” value ([2]; 3 μM, before and at different time points after addition) was “rapid loss in fluorescence”. The EC50 [3] was about 75 nM.
